We go through 13 cell lines from the supplement of paper PMC10307832.

Experiment in all cases: relative viability (nuclei count vs DMSO), 5 days (fraction); higher = more cells survive
Compound in experiment [1]: CCn1c(-c2nonc2N)nc2c(C#CC(C)(C)O)ncc(OC[C@H]3CCCNC3)c21 + Cc1cc(Nc2cc(N3CCN(C)CC3)nc(Sc3ccc(NC(=O)C4CC4)cc3)n2)n[nH]1 [Tozasertib] (partner 0.1 µM)
The gist of the method:
(§1)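 Relative viability was taken as the ratio of nuclei in treated wells to nuclei in vehicle wells. Lung cancer cell lines in 1536-well plates received compounds by pin tool one day after seeding, either one drug alone or a fixed anchor-drug dose plus five library-drug doses (not always all listed) in √10 steps. Nuclei were counted on 4× images after 5 days of treatment, and values are medians of duplicate plates.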

Compound in the experiment “BAM7 + Dasatinib”: CCOC1=CC=CC=C1N=NC2=C(NN(C2=O)C3=NC(=CS3)C4=CC=CC=C4)C [BAM7] + Cc1nc(Nc2ncc(C(=O)Nc3c(C)cccc3Cl)s2)cc(N2CCN(CCO)CC2)n1 [Dasatinib] (partner 0.075 µM)
In short, it runs like this: as §1

Compound in experiment [2]: CCn1c(-c2nonc2N)nc2c(C#CC(C)(C)O)ncc(OC[C@H]3CCCNC3)c21 + Nc1nc2[nH]cc(CCc3ccc(C(=O)N[C@@H](CCC(=O)O)C(=O)O)cc3)c2c(=O)[nH]1 [Pemetrexed] (partner 0.2 µM)
In short, it runs like this: as §1

Compound in the experiment “BAM7 + Navitoclax”: CCOC1=CC=CC=C1N=NC2=C(NN(C2=O)C3=NC(=CS3)C4=CC=CC=C4)C [BAM7] + CC1(C)CCC(c2ccc(Cl)cc2)=C(CN2CCN(c3ccc(C(=O)NS(=O)(=O)c4ccc(N[C@H](CCN5CCOCC5)CSc5ccccc5)c(S(=O)(=O)C(F)(F)F)c4)cc3)CC2)C1 [Navitoclax] (partner 0.5 µM)
In short, it runs like this: as §1

As to NCI-H358, the relative viability in experiment [1] (first compound 0.01 µM) is 0.0952; in experiment [1] (first compound 0.03162 µM) it was 0.0863; in experiment [1] (first compound 0.1 µM) it was 0.103; in experiment [1] (first compound 0.3162 µM), 0.1; in experiment [1] (first compound 1 µM), 0.097; in the experiment with BAM7 + Dasatinib (first compound 0.5 µM), 0.202. Moreover, the relative viability with BAM7 + Dasatinib (first compound 5 µM) is 0.217; with BAM7 + Dasatinib (first compound 15.81 µM), 0.197; with BAM7 + Dasatinib (first compound 50 µM), 0.254; in experiment [2] (first compound 0.01 µM) it was 0.231; in experiment [2] (first compound 0.03162 µM), 0.192; in experiment [2] (first compound 0.1 µM), 0.176. Moreover, the relative viability turned out to be 0.182 in experiment [2] (first compound 0.3162 µM) and 0.166 in experiment [2] (first compound 1 µM).

In the case of NCI-H522, the relative viability in experiment [1] (first compound 0.01 µM) amounted to 0.56; in experiment [1] (first compound 0.03162 µM) it was 0.55; in experiment [1] (first compound 0.1 µM), 0.52; in experiment [1] (first compound 0.3162 µM) it was 0.517; in experiment [1] (first compound 1 µM), 0.564; in the experiment with BAM7 + Dasatinib (first compound 0.5 µM), 0.872. Moreover, the relative viability with BAM7 + Dasatinib (first compound 5 µM) amounted to 0.976; with BAM7 + Dasatinib (first compound 15.81 µM), 0.828; with BAM7 + Dasatinib (first compound 50 µM) it was 0.827; in experiment [2] (first compound 0.01 µM), 0.989; in experiment [2] (first compound 0.03162 µM), 1.02; in experiment [2] (first compound 0.1 µM) it was 0.915. Besides, the relative viability was 0.95 in experiment [2] (first compound 0.3162 µM) and 1.17 in experiment [2] (first compound 1 µM).

Turning to NCI-H650, the relative viability is 0.724 in experiment [1] (first compound 0.01 µM); 0.746 in experiment [1] (first compound 0.03162 µM); 0.73 in experiment [1] (first compound 0.1 µM); 0.723 in experiment [1] (first compound 0.3162 µM); 0.694 in experiment [1] (first compound 1 µM); 0.422 with BAM7 + Dasatinib (first compound 0.5 µM). For the same cell line, the relative viability in the experiment with BAM7 + Dasatinib (first compound 5 µM) stood at 0.49; with BAM7 + Dasatinib (first compound 15.81 µM), 0.477; with BAM7 + Dasatinib (first compound 50 µM), 0.517; in experiment [2] (first compound 0.01 µM), 0.957; in experiment [2] (first compound 0.03162 µM), 0.862; in experiment [2] (first compound 0.1 µM), 0.988. Further, the relative viability in experiment [2] (first compound 0.3162 µM) was 1.02; in experiment [2] (first compound 1 µM) it was 0.919.

With NCI-H661, the relative viability came to 0.362 in experiment [1] (first compound 0.01 µM); 0.343 in experiment [1] (first compound 0.03162 µM); 0.354 in experiment [1] (first compound 0.1 µM); 0.364 in experiment [1] (first compound 0.3162 µM); 0.382 in experiment [1] (first compound 1 µM); 0.991 with BAM7 + Dasatinib (first compound 0.5 µM). Further, the relative viability was found to be 0.965 in the experiment with BAM7 + Dasatinib (first compound 5 µM); 0.759 in the experiment with BAM7 + Dasatinib (first compound 15.81 µM); 0.962 with BAM7 + Dasatinib (first compound 50 µM); 0.903 in experiment [2] (first compound 0.01 µM); 0.937 in experiment [2] (first compound 0.03162 µM); 0.938 in experiment [2] (first compound 0.1 µM). Besides, the relative viability was 0.713 in experiment [2] (first compound 0.3162 µM) and 0.926 in experiment [2] (first compound 1 µM).

On to NCI-H727, for which the relative viability in experiment [1] (first compound 0.01 µM) was found to be 0.605; in experiment [1] (first compound 0.03162 µM), 0.662; in experiment [1] (first compound 0.1 µM), 0.643; in experiment [1] (first compound 0.3162 µM), 0.693; in experiment [1] (first compound 1 µM), 0.575; with BAM7 + Dasatinib (first compound 0.5 µM), 0.351. Besides, the relative viability in the experiment with BAM7 + Dasatinib (first compound 15.81 µM) came to 0.469; with BAM7 + Dasatinib (first compound 50 µM), 0.312; with BAM7 + Navitoclax (first compound 0.5 µM), 0.419; with BAM7 + Navitoclax (first compound 5 µM) it was 0.458; with BAM7 + Navitoclax (first compound 15.81 µM), 0.471; with BAM7 + Navitoclax (first compound 50 µM), 0.441.

Consider NCI-H1299, for which the relative viability with BAM7 + Navitoclax (first compound 0.5 µM) is 1.05; with BAM7 + Navitoclax (first compound 5 µM) it was 1.08; with BAM7 + Navitoclax (first compound 15.81 µM), 1.07; with BAM7 + Navitoclax (first compound 50 µM), 1.06.

For NCI-H1563, the relative viability in the experiment with BAM7 + Dasatinib (first compound 0.5 µM) was determined as 0.438; in the experiment with BAM7 + Dasatinib (first compound 5 µM), 0.497; in the experiment with BAM7 + Dasatinib (first compound 15.81 µM), 0.484; with BAM7 + Dasatinib (first compound 50 µM), 0.41; in experiment [2] (first compound 0.01 µM), 0.76; in experiment [2] (first compound 0.03162 µM) it was 0.674. Further, the relative viability in experiment [2] (first compound 0.1 µM) is 0.678; in experiment [2] (first compound 0.3162 µM) it was 0.702; in experiment [2] (first compound 1 µM), 0.854.

Consider NCI-H1623, for which the relative viability came out at 0.433 in experiment [1] (first compound 0.01 µM); 0.468 in experiment [1] (first compound 0.03162 µM); 0.446 in experiment [1] (first compound 0.1 µM); 0.404 in experiment [1] (first compound 0.3162 µM); 0.492 in experiment [1] (first compound 1 µM); 0.576 in the experiment with BAM7 + Dasatinib (first compound 0.5 µM). The relative viability with BAM7 + Dasatinib (first compound 5 µM) amounted to 0.56; in the experiment with BAM7 + Dasatinib (first compound 15.81 µM) it was 0.573; in the experiment with BAM7 + Dasatinib (first compound 50 µM), 0.641.

Take NCI-H1648: the relative viability in experiment [1] (first compound 0.03162 µM) was 0.527; in experiment [1] (first compound 0.1 µM), 0.466; in experiment [1] (first compound 0.3162 µM), 0.444; in experiment [1] (first compound 1 µM), 0.574; in experiment [2] (first compound 0.01 µM) it was 0.62; in experiment [2] (first compound 0.03162 µM), 0.756. The relative viability in experiment [2] (first compound 0.1 µM) was found to be 0.759; in experiment [2] (first compound 0.3162 µM), 0.664; in experiment [2] (first compound 1 µM), 0.723.

On to NCI-H1703, for which the relative viability with BAM7 + Navitoclax (first compound 0.5 µM) worked out at 1.35; with BAM7 + Navitoclax (first compound 5 µM) it was 1.13; with BAM7 + Navitoclax (first compound 15.81 µM) it was 0.941; with BAM7 + Navitoclax (first compound 50 µM) it was 0.872.

Take NCI-H1792: the relative viability turned out to be 0.827 in the experiment with BAM7 + Dasatinib (first compound 0.5 µM); 0.833 in the experiment with BAM7 + Dasatinib (first compound 5 µM); 0.665 with BAM7 + Dasatinib (first compound 15.81 µM); 0.822 with BAM7 + Dasatinib (first compound 50 µM); 0.759 in experiment [2] (first compound 0.01 µM); 0.684 in experiment [2] (first compound 0.03162 µM). Besides, the relative viability in experiment [2] (first compound 0.1 µM) is 0.632; in experiment [2] (first compound 0.3162 µM), 0.782; in experiment [2] (first compound 1 µM) it was 0.687; in the experiment with BAM7 + Navitoclax (first compound 0.5 µM), 0.621; with BAM7 + Navitoclax (first compound 5 µM) it was 0.691; with BAM7 + Navitoclax (first compound 15.81 µM) it was 0.783. Also, the relative viability with BAM7 + Navitoclax (first compound 50 µM) stood at 0.61.

As for NCI-H2342, the relative viability stood at 0.521 in experiment [1] (first compound 0.01 µM); 0.588 in experiment [1] (first compound 0.03162 µM); 0.466 in experiment [1] (first compound 0.1 µM); 0.572 in experiment [1] (first compound 0.3162 µM); 0.612 in experiment [1] (first compound 1 µM); 0.286 with BAM7 + Dasatinib (first compound 0.5 µM). In addition, the relative viability is 0.343 with BAM7 + Dasatinib (first compound 5 µM); 0.352 with BAM7 + Dasatinib (first compound 15.81 µM); 0.316 in the experiment with BAM7 + Dasatinib (first compound 50 µM); 0.751 in experiment [2] (first compound 0.01 µM); 0.73 in experiment [2] (first compound 0.03162 µM); 0.767 in experiment [2] (first compound 0.1 µM). In addition, the relative viability in experiment [2] (first compound 0.3162 µM) was found to be 0.754; in experiment [2] (first compound 1 µM) it was 0.8.

As for SW 900, the relative viability in experiment [1] (first compound 0.01 µM) came out at 0.626; in experiment [1] (first compound 0.03162 µM), 0.747; in experiment [1] (first compound 0.1 µM), 0.646; in experiment [1] (first compound 0.3162 µM), 0.561; in experiment [1] (first compound 1 µM), 0.579; in the experiment with BAM7 + Dasatinib (first compound 0.5 µM) it was 0.358. In addition, the relative viability was determined as 0.398 with BAM7 + Dasatinib (first compound 5 µM); 0.711 with BAM7 + Dasatinib (first compound 15.81 µM); 0.656 with BAM7 + Dasatinib (first compound 50 µM); 0.488 in experiment [2] (first compound 0.01 µM); 0.502 in experiment [2] (first compound 0.03162 µM); 0.465 in experiment [2] (first compound 0.1 µM). Besides, the relative viability in experiment [2] (first compound 0.3162 µM) came to 0.385; in experiment [2] (first compound 1 µM) it was 0.499.
